From PubChem BioAssay AID256 (DTP/NCI, 2004)
Where “and” joins values, the source holds several entries; their conditions need not be identical. Identical values can stand only once. Inconclusive results and toxic doses are left out.

Test system: CD2F1 mice, L1210 leukemia ip, survival T/C
Assay: NCI In Vivo Anticancer Drug Screen. Data for tumor model L1210 Leukemia (intraperitoneal) in CD2F1 (CDF1) mice
Conditions: higher = longer survival
Method in brief: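 Antitumor effect is scored in animals hosting a serially transplanted tumor. Values compare compound-dosed animals against vehicle-only controls as a simple quotient.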

[1] = endpoint: mean survival time, dose: 12.5 mg/kg/injection, schedule: Q01DX009 (ip), vehicle: saline with Tween-80
[2] = endpoint: mean survival time, dose: 25.0 mg/kg/injection, schedule: Q01DX009 (ip), vehicle: saline with Tween-80
[3] = endpoint: mean survival time, dose: 50.0 mg/kg/injection, schedule: Q01DX009 (ip), vehicle: saline with Tween-80
[4] = endpoint: mean survival time, dose: 100.0 mg/kg/injection, schedule: Q01DX009 (ip), vehicle: saline with Tween-80
[5] = endpoint: mean survival time, dose: 200.0 mg/kg/injection, schedule: Q01DX009 (ip), vehicle: saline with Tween-80
[6] = endpoint: mean survival time, dose: 25.0 mg/kg/injection, schedule: Q04DX003 (ip), vehicle: saline with Tween-80
[7] = endpoint: mean survival time, dose: 400.0 mg/kg/injection, schedule: Q01DX009 (ip), vehicle: saline with Tween-80
[8] = endpoint: mean survival time, dose: 100.0 mg/kg/injection, schedule: Q01DX001 (ip), vehicle: saline with Tween-80
[9] = endpoint: mean survival time, dose: 200.0 mg/kg/injection, schedule: Q01DX001 (ip), vehicle: saline with Tween-80
[10] = endpoint: mean survival time, dose: 400.0 mg/kg/injection, schedule: Q01DX001 (ip), vehicle: saline with Tween-80
[11] = endpoint: mean survival time, dose: 100.0 mg/kg/injection, schedule: Q04DX003 (ip), vehicle: saline with Tween-80
[12] = endpoint: mean survival time, dose: 200.0 mg/kg/injection, schedule: Q04DX003 (ip), vehicle: saline with Tween-80
[13] = endpoint: mean survival time, dose: 400.0 mg/kg/injection, schedule: Q04DX003 (ip), vehicle: saline with Tween-80
[14] = endpoint: mean survival time, dose: 25.0 mg/kg/injection, schedule: Q04DX002 (ip), vehicle: saline with Tween-80

Nc1nc2n[nH]nc2c(=O)[nH]1
T/C (endpoint: mean survival time, dose: 0.78 mg/kg/injection, schedule: Q01DX009 (ip), vehicle: saline with Tween-80): 103 % of control | T/C (endpoint: mean survival time, dose: 1.56 mg/kg/injection, schedule: Q01DX009 (ip), vehicle: saline with Tween-80): 115 % of control | T/C [1]: 150 % of control | T/C [2]: 151 % of control | T/C (endpoint: mean survival time, dose: 50.0 mg/kg/injection, schedule: Q01DX009 (ip), vehicle: other): 154 % of control | T/C [3]: 156 % of control and 158 % of control | T/C (endpoint: mean survival time, dose: 50.0 mg/kg/injection, schedule: Q03DX003 (ip), vehicle: other): 120 % of control | T/C (endpoint: mean survival time, dose: 50.0 mg/kg/injection, schedule: Q04DX003 (ip), vehicle: other): 111 % of control | T/C (endpoint: mean survival time, dose: 75.0 mg/kg/injection, schedule: Q01DX009 (ip), vehicle: saline with Tween-80): 114 % of control | T/C (endpoint: mean survival time, dose: 100.0 mg/kg/injection, schedule: Q01DX001 (ip), vehicle: saline sonified): 108 % of control | T/C (endpoint: mean survival time, dose: 100.0 mg/kg/injection, schedule: Q01DX009 (ip), vehicle: other): 153 % of control | T/C [4]: 97 % of control and 107 % of control | T/C (endpoint: mean survival time, dose: 100.0 mg/kg/injection, schedule: Q04DX003 (ip), vehicle: other): 123 % of control | T/C (endpoint: mean survival time, dose: 200.0 mg/kg/injection, schedule: Q01DX001 (ip), vehicle: saline sonified): 108 % of control | T/C (endpoint: mean survival time, dose: 200.0 mg/kg/injection, schedule: Q01DX007 (ip), vehicle: other): 150 % of control | T/C (endpoint: mean survival time, dose: 200.0 mg/kg/injection, schedule: Q01DX009 (ip), vehicle: other): 153 % of control | T/C (endpoint: mean survival time, dose: 200.0 mg/kg/injection, schedule: Q01DX009 (ip), vehicle: saline sonified): 106 % of control | T/C [5]: 97 % of control | T/C (endpoint: mean survival time, dose: 200.0 mg/kg/injection, schedule: Q03DX003 (ip), vehicle: other): 120 % of control | T/C (endpoint: mean survival time, dose: 200.0 mg/kg/injection, schedule: Q04DX003 (ip), vehicle: other): 119 % of control | T/C (endpoint: mean survival time, dose: 400.0 mg/kg/injection, schedule: Q01DX001 (ip), vehicle: saline sonified): 112 % of control | T/C (endpoint: median survival time, dose: 50.0 mg/kg/injection, schedule: Q01DX009 (ip), vehicle: saline): 164 % of control | T/C (endpoint: median survival time, dose: 100.0 mg/kg/injection, schedule: Q01DX009 (ip), vehicle: saline): 164 % of control | T/C (endpoint: median survival time, dose: 200.0 mg/kg/injection, schedule: Q01DX009 (ip), vehicle: saline): 164 % of control | T/C (endpoint: median survival time, dose: 400.0 mg/kg/injection, schedule: Q01DX009 (ip), vehicle: saline): 111 % of control

O=C(C[n+]1ccccc1)N/N=C/c1ccc(Cl)cc1
T/C [4]: 107 % of control

Cc1c(O)ccc([N+](=O)[O-])c1O
T/C (endpoint: mean survival time, dose: 12.5 mg/kg/injection, schedule: Q04DX003 (ip), vehicle: saline with Tween-80): 107 % of control | T/C [6]: 102 % of control

CCOC(=O)c1ccc(OCC(=O)Nc2ccccc2)cc1
T/C [4]: 97 % of control | T/C [5]: 96 % of control | T/C [7]: 103 % of control

C/C([O-])=N\[N+](C)(C)Cc1ccccc1
T/C [8]: 95 % of control | T/C [9]: 98 % of control | T/C [10]: 102 % of control

NC(=O)C1C(c2ccccc2)=C(c2ccccc2)c2ccccc21 (centres undefined)
T/C [8]: 87 % of control | T/C [9]: 87 % of control | T/C [10]: 87 % of control

O=C1c2ccccc2C(=O)N1CBr
T/C [1]: 100 % of control | T/C [2]: 97 % of control | T/C [3]: 98 % of control

Nc1ncnc2c1c1cnc(=O)[nH]c1n2C1OC(CO)C(O)C1O (centres undefined)
T/C (endpoint: mean survival time, dose: 20.0 mg/kg/injection, schedule: Q01DX005 (ip), vehicle: alkali diluted with water): 97 % of control | T/C (endpoint: mean survival time, dose: 40.0 mg/kg/injection, schedule: Q01DX005 (ip), vehicle: alkali diluted with water): 97 % of control | T/C (endpoint: mean survival time, dose: 80.0 mg/kg/injection, schedule: Q01DX005 (ip), vehicle: alkali diluted with water): 96 % of control | T/C (endpoint: mean survival time, dose: 160.0 mg/kg/injection, schedule: Q01DX005 (ip), vehicle: alkali diluted with water): 97 % of control | T/C (endpoint: mean survival time, dose: 320.0 mg/kg/injection, schedule: Q01DX005 (ip), vehicle: alkali diluted with water): 110 % of control

Cc1cccc(C)c1NC(=O)c1ccccc1Cl
T/C [11]: 98 % of control | T/C [12]: 97 % of control | T/C [13]: 89 % of control

Oc1ccc2cc3ccccc3cc2c1
T/C (endpoint: mean survival time, dose: 25.0 mg/kg/injection, schedule: Q01DX001 (ip), vehicle: DMSO): 104 % of control | T/C (endpoint: mean survival time, dose: 50.0 mg/kg/injection, schedule: Q01DX001 (ip), vehicle: DMSO): 93 % of control | T/C (endpoint: mean survival time, dose: 100.0 mg/kg/injection, schedule: Q01DX001 (ip), vehicle: DMSO): 87 % of control and 93 % of control

C=C(C)CSC#N
T/C [6]: 97 % of control | T/C (endpoint: mean survival time, dose: 50.0 mg/kg/injection, schedule: Q04DX003 (ip), vehicle: saline with Tween-80): 100 % of control | T/C [11]: 100 % of control and 107 % of control

Cc1ccc(S(=O)(=O)N(O)c2ccccc2)cc1
T/C [11]: 100 % of control | T/C [12]: 100 % of control | T/C [13]: 103 % of control

N[N+]#COC1C(C(=O)NN)C1C(=O)NN (centres undefined)
T/C (endpoint: median survival time, dose: 50.0 mg/kg/injection, schedule: Q04DX002 (ip), vehicle: saline with Tween-80): 94 % of control | T/C (endpoint: median survival time, dose: 100.0 mg/kg/injection, schedule: Q04DX002 (ip), vehicle: saline with Tween-80): 105 % of control | T/C (endpoint: median survival time, dose: 400.0 mg/kg/injection, schedule: Q04DX002 (ip), vehicle: saline with Tween-80): 105 % of control

CCCCCCC(=O)/C=C\C(C)=C\c1ccccc1
T/C [8]: 94 % of control | T/C [4]: 98 % of control | T/C [9]: 100 % of control | T/C [5]: 98 % of control | T/C [10]: 94 % of control | T/C [7]: 98 % of control

C=CCCCCCCCCC(=O)NCC1CCCCO1 (centres undefined)
T/C [11]: 94 % of control | T/C [12]: 98 % of control | T/C [13]: 93 % of control

COC(=O)C1(C)CCCC2(C)C3CCC(C)(CCOC(C)=O)CC3C(OC(C)=O)CC12 (centres undefined)
T/C [8]: 90 % of control

C1CCC(C2CCCC[N-]2)[N-]C1.C1CCC(C2CCCC[N-]2)[N-]C1.[Cl][Ru][Cl] (centres undefined)
T/C (endpoint: mean survival time, dose: 3.13 mg/kg/injection, schedule: Q04DX003 (ip), vehicle: distilled water + Tween-80): 93 % of control | T/C (endpoint: mean survival time, dose: 6.25 mg/kg/injection, schedule: Q04DX003 (ip), vehicle: distilled water + Tween-80): 88 % of control | T/C (endpoint: mean survival time, dose: 12.5 mg/kg/injection, schedule: Q04DX003 (ip), vehicle: distilled water + Tween-80): 92 % of control | T/C (endpoint: mean survival time, dose: 25.0 mg/kg/injection, schedule: Q04DX003 (ip), vehicle: distilled water + Tween-80): 88 % of control | T/C (endpoint: mean survival time, dose: 50.0 mg/kg/injection, schedule: Q04DX003 (ip), vehicle: distilled water + Tween-80): 97 % of control

Cc1ccc(C(C)C)c(OCC[N+]2(CCOc3cc(C)ccc3C(C)C)CC=CC2)c1
T/C (endpoint: mean survival time, dose: 6.25 mg/kg/injection, schedule: Q04DX002 (ip), vehicle: saline with Tween-80): 100 % of control | T/C (endpoint: mean survival time, dose: 12.5 mg/kg/injection, schedule: Q04DX002 (ip), vehicle: saline with Tween-80): 94 % of control | T/C [14]: 100 % of control

CC(C)NC(=O)C1CC2c3cccc4[nH]c(Br)c(c34)CC2N(C)C1 (centres undefined)
T/C (endpoint: mean survival time, dose: 5.0 mg/kg/injection, schedule: Q01DX009 (ip), vehicle: saline with Tween-80): 90 % of control | T/C (endpoint: mean survival time, dose: 10.0 mg/kg/injection, schedule: Q01DX009 (ip), vehicle: saline with Tween-80): 104 % of control | T/C (endpoint: mean survival time, dose: 20.0 mg/kg/injection, schedule: Q01DX009 (ip), vehicle: saline with Tween-80): 94 % of control

COc1ccc(NC(=O)Oc2ccc(C3CCCCC3)cc2)cc1
T/C [2]: 97 % of control | T/C [14]: 104 % of control | T/C [3]: 93 % of control | T/C (endpoint: mean survival time, dose: 50.0 mg/kg/injection, schedule: Q04DX002 (ip), vehicle: saline with Tween-80): 104 % of control | T/C [4]: 89 % of control | T/C (endpoint: mean survival time, dose: 100.0 mg/kg/injection, schedule: Q04DX002 (ip), vehicle: saline with Tween-80): 101 % of control | T/C (endpoint: mean survival time, dose: 200.0 mg/kg/injection, schedule: Q04DX002 (ip), vehicle: saline with Tween-80): 108 % of control

Cc1cc(C(O)CNC(C)CCn2cnc3c2c(=O)n(C)c(=O)n3C)ccc1O (centres undefined)
T/C (endpoint: mean survival time, dose: 12.5 mg/kg/injection, schedule: Q01DX005 (ip), vehicle: water): 93 % of control | T/C (endpoint: mean survival time, dose: 25.0 mg/kg/injection, schedule: Q01DX005 (ip), vehicle: water): 96 % of control | T/C (endpoint: mean survival time, dose: 50.0 mg/kg/injection, schedule: Q01DX005 (ip), vehicle: water): 96 % of control | T/C (endpoint: mean survival time, dose: 100.0 mg/kg/injection, schedule: Q01DX005 (ip), vehicle: water): 100 % of control | T/C (endpoint: mean survival time, dose: 200.0 mg/kg/injection, schedule: Q01DX005 (ip), vehicle: water): 93 % of control

OCCOCCN1CCN(CCCN2c3ccccc3Sc3ccc(C(F)(F)F)cc32)CC1
T/C (endpoint: mean survival time, dose: 6.25 mg/kg/injection, schedule: Q01DX009 (ip), vehicle: saline): 121 % of control
